Measurements taken from ChEMBL document CHEMBL3244383, “Antiinflammatory activity of 17-esters of 6alpha,9alpha-difluoro-21-deoxyprednisolone” (1977).

Experiments:
Format in all cases: functional
Rattus norvegicus [1] = species on record: Rattus norvegicus; assay: Antiexudative activity in rat assessed as inhibition of exudate formation in granuloma pouch at 0.002 umol compound injected into pouch on day 5 measured on day 11 relative to control
Rattus norvegicus [2] = species on record: Rattus norvegicus; assay: Antiexudative activity in rat assessed as inhibition of exudate formation in granuloma pouch at 0.02 umol compound injected into pouch on day 5 measured on day 11 relative to control
Homo sapiens = assay: Vasoconstrictive activity in human at 0.02 to 0.18 ug applied topically by paper-patch test relative to betamethasone 17-valerate
Rattus norvegicus [3] = assay: Antiexudative activity in rat assessed as inhibition of exudate formation in granuloma pouch at 0.002 umol, sc administered from day 2 to day 10 measured on day 11 relative to control
Rattus norvegicus [4] = assay: Antiexudative activity in rat assessed as inhibition of exudate formation in granuloma pouch at 0.02 umol, sc administered from day 2 to day 10 measured on day 11 relative to control

CC(=O)O[C@]1(C(C)=O)CC[C@H]2[C@@H]3C[C@H](F)C4=CC(=O)C=C[C@]4(C)[C@@]3(F)[C@@H](O)C[C@@]21C
inhibition (INH) (Rattus norvegicus [1]): 18%
inhibition (INH) (Rattus norvegicus [2]): 13%
fold change (FC) (Homo sapiens): 1.5

CCC(=O)O[C@]1(C(C)=O)CC[C@H]2[C@@H]3C[C@H](F)C4=CC(=O)C=C[C@]4(C)[C@@]3(F)[C@@H](O)C[C@@]21C
inhibition (INH) (Rattus norvegicus [1]): 47%
inhibition (INH) (Rattus norvegicus [2]): 67%
fold change (FC) (Homo sapiens): 2.5

CCCC(=O)O[C@]1(C(C)=O)CC[C@H]2[C@@H]3C[C@H](F)C4=CC(=O)C=C[C@]4(C)[C@@]3(F)[C@@H](O)C[C@@]21C
inhibition (INH) (Rattus norvegicus [1]): 60%
inhibition (INH) (Rattus norvegicus [2]): 81%
fold change (FC) (Homo sapiens): 2.5

CC(=O)[C@@]1(OC(=O)c2ccccc2)CC[C@H]2[C@@H]3C[C@H](F)C4=CC(=O)C=C[C@]4(C)[C@@]3(F)[C@@H](O)C[C@@]21C
inhibition (INH) (Rattus norvegicus [3]): <5%
inhibition (INH) (Rattus norvegicus [1]): 71%
inhibition (INH) (Rattus norvegicus [4]): 35%
inhibition (INH) (Rattus norvegicus [2]): 90%
fold change (FC) (Homo sapiens): <=1

CCC(=O)O[C@]1(C(=O)CO)CC[C@H]2[C@@H]3C[C@H](F)C4=CC(=O)C=C[C@]4(C)[C@@]3(F)[C@@H](O)C[C@@]21C
inhibition (INH) (Rattus norvegicus [1]): <5%
inhibition (INH) (Rattus norvegicus [2]): 41%

C[C@]12C=CC(=O)C=C1[C@@H](F)C[C@H]1[C@@H]3CC[C@](OC(=O)c4ccccc4)(C(=O)CO)[C@@]3(C)C[C@H](O)[C@@]12F
inhibition (INH) (Rattus norvegicus [3]): 20%
inhibition (INH) (Rattus norvegicus [1]): 46%
inhibition (INH) (Rattus norvegicus [4]): 62%
inhibition (INH) (Rattus norvegicus [2]): 70%
